# In patent publication US20070161634A1, “Compounds as CCR5 antagonists” (priority 2004, published 2007):
# Where two headings read alike, the source gives them in different places.
# How the values were obtained:
# CCR5 receptor = CCR5 receptor (Homo sapiens, UniProt P51681); assay: [35S]GTPγS binding assay; assay type: biochemical
# From the text: [^35S]GTPγS binding assay
# CCR5 receptor binds to agonists and changes its conformation which enables it to interact with and activate G protein, a heterotrimer which consists of subunits α and βγ. The capability of G protein α subunit binding to GTP depends on the effect between CCR5 and the agonists, therefore, the amount of α subunit bound GTP should reflect the agonists activity on the CCR5 receptor. In the GTPγS binding assay, [^35S]GTPγS is resistant to the GTPase activity of α subunit, and thus cannot be hydrolyzed when bound to G protein, making it accurate to reflect the receptor activation. Radiolabled [^35S]GTPγS can also serve as marker for detection in place of GTP. When CCR5 is not activated, α subunit is bound to GDP, but when CCR5 is activated, α subunit binds to [^35S]GTPγS, therefore, measurement of the number of the α subunit-bound ^35S-GTPγS can reflect the CCR5 activation level.
# CCR5 activation of G-protein was measured according to assays below:
# Permanent cell line expressing CHO of CCR5 (available at Euroscreen S.A., Belgium) was lysed by lysis buffer (5 mM Tris HCl, pH 7.5, 5 mM EDTA and 5 mM EGTA), and centrifuged at 15,000×g for 10 min. Cell membrane was resuspended with reaction buffer (5 mM Tris HCl, pH 7.5, 5 mM MgCl2, 1 mM EGTA, 100 mM NaCl), and protein concentrations were determined using Bioford assay (Bio-rad). [^35S]GTPγS binding assay was performed in the 100 μl reaction buffer system, which contains 10 ug membrane protein, 40 uM GDP and 0.5 nM [^35S]GTPγS (1200 Ci/mmol). After adding the study compounds, the system was vortexed and placed on ice for 5 min, and then CCR5 agonist was added (10 nM RANTES or 30 nM MIP1β). After vortexing, the reaction tubes were incubated at 30° C. for 1 h. After the reaction was complete, the reaction tubes were placed on ice and diluted with PBS to terminate the reaction. After suction through the GF/C filter membrane under vacuum, the membrane bound radioactivity was measured with a scintillation counter. Basal binding was measured without presence of agonist, and non-specific binding was measured in the presence of 10 mM nonisotopical GTPγS. The binding ratio of [^35S]GTPγS was calculated according to 100×[c.p.m.sample−c.p.m. non-specific]/[c.p.m.basal−c.p.m. non-specific]. IC50 was the compound concentration at which half of the [^35S]GTPγS binding induced by 10 nM RANTES or 30 nM MIP1β was inhibited, and the value was obtained from the concentration-inhibition curve (6-7 points for concentrations of each compound).
# CCR1 = target: T1, CCR1 (Homo sapiens, UniProt P32246); assay: effects on the activation of CCR1 receptor; conditions: at the concentration of 10,000 nM
# T1 sequence (P32246 1-355): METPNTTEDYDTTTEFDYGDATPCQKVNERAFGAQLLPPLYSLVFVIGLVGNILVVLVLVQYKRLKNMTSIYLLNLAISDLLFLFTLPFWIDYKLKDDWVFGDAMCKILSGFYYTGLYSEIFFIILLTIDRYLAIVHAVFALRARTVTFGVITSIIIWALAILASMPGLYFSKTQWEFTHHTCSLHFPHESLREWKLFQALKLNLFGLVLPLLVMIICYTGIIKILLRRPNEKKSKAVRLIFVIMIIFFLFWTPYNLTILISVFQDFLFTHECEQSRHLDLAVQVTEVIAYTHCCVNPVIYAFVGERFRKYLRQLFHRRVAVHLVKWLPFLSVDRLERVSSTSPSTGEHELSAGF
# MTT cytotoxicity assay = assay type: cell-based; conditions: human, peripheral blood mononuclear cells (PBMC) and Jurkat cells; MTT
# Experimental: (§1) C. MTT Cytotoxicity Assay
# (§2) Cells were prepared as single cell suspension, and cell densities were adjusted according to the cell size and cell features. Cells were inoculated with 100 ul culture media into 96 well plates, and incubated in 37° C. incubator (5% CO2, saturated humidity). The seeding densities were as follows: peripheral blood monouclear cells (PBMC) 10^5 cells /well, Jurket 4×10^4 cells/well. 24 h after cell inoculation, the compounds to be tested were added and incubated with cells. 48 h after inoculation, 10 μl MTT (Sigma, USA, 5 mg/ml, diluted with PBS and stored at −20° C.) was added to each well, and incubated for another 4 h in 37° C. incubator. Then add 50 μl formazane solvent (10%SDS-5%isopropanol−0.01M HCl) and incubate overnight. Determine OD570/OD630 nm at spectrophotometer, and calculate CC50 according to the inhibition curve.
# [1] = test system: peripheral blood monouclear cells (PBMC), Jurket; assay: MTT cytotoxicity assay; assay type: cell-based; conditions: at 10,000 nM
# Experimental: as §1, §2
# CXCR4 = CXCR4 (Homo sapiens, UniProt P61073); assay: effects on the activation of CXCR4 receptor; conditions: at the concentration of 10,000 nM
# [2] = Table I, [35S]GTPγS binding, read-out: IC50
# [3] = [35S]GTPγS binding initiated by 10 nM RANTES, read-out: IC50(nM) ± S.E.
# [4] = Table I, class symbols, inhibition at 10,000 nM, read-out: IC50
# [5] = [35S]GTPγS binding initiated by 10 nM RANTES, class symbols, inhibition at 10,000 nM, read-out: IC50(nM) ± S.E.
# Sequence of CXCR4 (P61073 whole entry, species assumed): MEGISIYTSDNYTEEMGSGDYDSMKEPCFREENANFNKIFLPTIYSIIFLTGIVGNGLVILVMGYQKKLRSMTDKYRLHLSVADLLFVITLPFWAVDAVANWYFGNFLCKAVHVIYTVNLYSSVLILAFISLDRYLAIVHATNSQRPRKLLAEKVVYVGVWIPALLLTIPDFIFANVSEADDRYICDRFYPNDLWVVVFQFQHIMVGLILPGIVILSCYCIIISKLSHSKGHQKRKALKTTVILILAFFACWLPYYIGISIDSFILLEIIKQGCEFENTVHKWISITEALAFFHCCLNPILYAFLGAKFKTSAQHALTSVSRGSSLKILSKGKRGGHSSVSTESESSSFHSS
# Sequence of CCR5 receptor (P51681 whole entry): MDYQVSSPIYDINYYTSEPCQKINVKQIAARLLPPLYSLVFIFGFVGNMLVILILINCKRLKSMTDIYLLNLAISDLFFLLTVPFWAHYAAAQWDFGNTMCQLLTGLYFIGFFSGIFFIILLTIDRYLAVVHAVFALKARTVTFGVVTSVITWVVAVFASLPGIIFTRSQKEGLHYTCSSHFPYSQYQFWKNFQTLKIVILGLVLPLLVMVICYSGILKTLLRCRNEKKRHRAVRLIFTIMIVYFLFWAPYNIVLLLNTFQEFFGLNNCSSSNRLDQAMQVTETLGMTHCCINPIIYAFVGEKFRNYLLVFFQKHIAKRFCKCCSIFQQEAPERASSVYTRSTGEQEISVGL
IC50 (CCR5 receptor; [2]) [nM],IC50 (CCR5 receptor; [3]) [nM],Structure (SMILES),also measured
~10000,~10000,"OC1(c2ccc3c(c2)OCO3)CN(Cc2ccccc2)CC1CN1CCC(c2ccccc2)CC1 (centres unmarked) [I-a-a, 1-benzyl-3-(benzo[1,3]dioxol-5-yl)-4-[(4-phenylpiperidin-1-yl)methyl]pyrrolidin-3-ol]",–
1160 ± 224,1160 ± 224,"O=C(c1ccccc1I)N1CC(CN2CCC(c3ccccc3)CC2)C(O)(c2ccccc2)C1 (centres unmarked) [I-b-c, (3-hydroxy-3-phenyl-4-[(4-phenylpiperidin-1-yl)methyl]pyrrolidin-1-yl)(2-iodophenyl) methanone]",–
–,–,"O=S(=O)(c1ccccc1)N1CC(CN2CCC(c3ccccc3)CC2)C(O)(c2ccccc2)C1 (centres unmarked) [I-b-d, 3-phenyl-4-[(4-phenylpiperidin-1-yl)methyl]-1-(phenylsulfonyl)pyrrolidin-3-ol]",IC50 (CCR5 receptor; [4]): > 10000 nM; IC50 (CCR5 receptor; [5]): > 10000 nM
1890 ± 615,1890 ± 615,"O=C(C1CCCC1)N1CC(CN2CCC(c3ccccc3)CC2)C(O)(c2ccccc2)C1 (centres unmarked) [I-b-e, Cyclopentyl-(3-hydroxy-3-phenyl-4-[(4-phenylpiperidin-1-yl)methyl]pyrrolidin-1-yl)metha none]",–
408 ± 10.5,408 ± 10.5,"OC1(c2ccccc2)CN(Cc2ccccc2)CC1CN1CCC(CCCc2ccccc2)CC1 (centres unmarked) [I-b-g, 1-benzyl-3-phenyl-4-{[4-(3-phenylpropyl)piperidin-1-yl]methyl}pyrrolidin-3-ol]",–
368 ± 52,368 ± 52,"OC1(CCCc2ccccc2)CCN(CC2CN(Cc3ccccc3)CC2(O)c2ccccc2)CC1 (centres unmarked) [I-b-h, 1-[(1-benzyl-4-hydroxy-4-phenylpyrrolidin-3-yl)methyl]-4-(3-phenylpropyl)piperidin-4-ol]",–
–,–,"OC1(c2ccc(F)cc2)CN(Cc2ccccc2)CC1CN1CCC(c2ccccc2)CC1 (centres unmarked) [I-b-j, 1-benzyl-3-(4-fluorophenyl)-4-((4-phenylpiperidin-1-yl)methyl)pyrrolidin-3-ol]",IC50 (CCR5 receptor; [4]): > 10000 nM; IC50 (CCR5 receptor; [5]): > 10000 nM
2510,2510,"OC1(CCCc2ccccc2)CCN(CC2CN(Cc3ccccc3)CC2(O)c2ccc(F)cc2)CC1 (centres unmarked) [I-b-k, 1-{[1-benzyl-4-(4-fluorophenyl)-4-hydroxypyrrolidin-3-yl]methyl}-4-(3-phenylpropyl)piper idin-4-ol]",–
401 ± 87.5,401 ± 87.5,"CCN(C(=O)OCc1ccccc1)C1CCN(CC2CN(Cc3ccccc3)CC2(O)c2ccccc2)CC1 (centres unmarked) [II-a-a, Benzyl 1-[(1-benzyl-4-hydroxy-4-phenylpyrrolidin-3-yl)methyl]piperidin-4-yl (ethyl)carbamate]",activation or antagonism of CCR1 receptor (CCR1): do not activate or antagonize; CC50 at 24 h (MTT cytotoxicity assay): ~30000 nM; cytotoxicity on cells [1]: no significant cytotoxicity; activation or antagonism of CXCR4 receptor (CXCR4): do not activate or antagonize
565 ± 64.5,565 ± 64.5,"CCN(C(=O)OCc1ccccc1)C1CCN(CC2CN(Cc3ccccc3)CC2(O)c2ccc(F)cc2)CC1 (centres unmarked) [II-a-b, Benzyl 1-[(1-benzyl-4-(4-fluorophenyl)-4-hydroxypyrrolidin-3-yl)methyl]piperidin-4-yl (ethyl)carbamate]",–
–,–,CCN(C(=O)OCc1ccccc1)C1CCN(CC2CN(Cc3ccccc3)CC2(C)O)CC1 (centres unmarked) [II-a-c],IC50 (CCR5 receptor; [4]): > 10000 nM; IC50 (CCR5 receptor; [5]): > 10000 nM
8.75,8.75,"C=CCN(C(=O)OCc1ccccc1)C1CCN(CC2CN(C(=O)C3CCCC3)CC2(O)c2ccccc2)CC1 (centres unmarked) [III-a-h, benzyl allyl(1-((1-(cyclo-pentanecarbonyl)-4-hydroxy-4-phenylpyrrolidin-3-yl)methyl)piperi-din-4-yl) carbamate]",–
4.33,4.33,"C=CCN(C(=O)OCc1ccc(OC)cc1)C1CCN(CC2CN(C(=O)C3CCCC3)CC2(O)c2ccccc2)CC1 (centres unmarked) [III-a-i, 4-methoxybenzyl allyl(1-((1-(cyclo-pentanecarbonyl)-4-hydroxy-4-phenylpyrrolidin-3-yl)methyl)piperi-din-4-yl) carbamate]",–
8.87,8.87,"C=CCN(C(=O)OCc1ccc(Br)cc1)C1CCN(CC2CN(C(=O)C3CCCC3)CC2(O)c2ccccc2)CC1 (centres unmarked) [III-a-j, 4-bromobenzyl allyl(1-((1-cyclo-pentanecar-bonyl)-4-hydroxy-4-phenylpyrrolidin-3-yl)methyl) piperidin-4-yl) carbamate]",–
6.46,6.46,"C=CCN(C(=O)Nc1ccccc1)C1CCN(CC2CN(C(=O)C3CCCC3)CC2(O)c2ccccc2)CC1 (centres unmarked) [III-a-k, 1-allyl-1-(1-((1-(cyclopentane-carbonyl)-4-hydroxy-4-phenylpyrrolidin-3-yl)methyl)piperidin-4-yl)-3-phenylurea]",–
13.6,13.6,"C=CCN(C(=O)COc1ccccc1)C1CCN(CC2CN(C(=O)C3CCCC3)CC2(O)c2ccccc2)CC1 (centres unmarked) [III-a-l, N-allyl-N-(1-((1-(cyclopen-tanecarbonyl)-4-hydroxy-4-phenylpyrrolidin-3-yl)methyl)piperi-din-4-yl)-3-phenoxy acetamide]",–
–,–,"C[C@H]1[C@@H](CN2CCC(c3ccccc3)CC2)C(O)(c2ccccc2)CN1Cc1ccccc1 (some centres unmarked) [IV-a-a, 1-benzyl-5-methyl-3-phenyl-4-[(4-phenylpiperi-din-1-yl)methyl]py-rrolidin-3-ol]",IC50 (CCR5 receptor; [4]): > 10000 nM; IC50 (CCR5 receptor; [5]): > 10000 nM

Structure (SMILES),IC50 (CCR5 receptor; [2]) [nM],IC50 (CCR5 receptor; [3]) [nM],also measured
"O=C(c1ccccc1)N1CC(CN2CCC(c3ccccc3)CC2)C(O)(c2ccccc2)C1 (centres unmarked) [I-b-b, (3-hydroxy-3-phenyl-4-[(4-phenylpiperidin-1-yl)methyl]pyrrolidin-1-yl)(phenyl)methanone]",2860 ± 860,2860 ± 60,–
"C=CCN(C(=O)OCc1ccc([N+](=O)[O-])cc1)C1CCN(CC2CN(Cc3ccccc3)CC2(O)c2ccccc2)CC1 (centres unmarked) [III-a-a, 4-nitrobenzyl allyl(1-((1-benzyl-4-hydroxy-4-phenylpyrrolidin-3-yl)methyl)piperidin-4-yl) carbamate]",~10000,~10000,activation or antagonism of CCR1 receptor (CCR1): do not activate or antagonize; activation or antagonism of CXCR4 receptor (CXCR4): do not activate or antagonize
"C=CCN(C(=O)OCc1ccc([N+](=O)[O-])cc1)C1CCN(CC2CN(C(=O)c3ccccc3)CC2(O)c2ccccc2)CC1 (centres unmarked) [III-a-b, 4-nitrobenzyl allyl(1-((1-benzoyl-4-hydroxy-4-phenylpyrrolidin-3-yl)methyl)piperidin-4-yl) carbamate]",9.7 ± 0.7,9.7 ± 0.7,activation or antagonism of CCR1 receptor (CCR1): do not activate or antagonize; CC50 at 24 h (MTT cytotoxicity assay): ~30000 nM; cytotoxicity on cells [1]: no significant cytotoxicity; activation or antagonism of CXCR4 receptor (CXCR4): do not activate or antagonize
